What was measured:
[1] = molecular target: Voltage-gated inwardly rectifying potassium channel KCNH2 (Homo sapiens, UniProt Q12809); format: functional; conditions: read-out: AC50
[2] = molecular target: T1, Alpha-2A adrenergic receptor (Homo sapiens, UniProt P08913); format: functional, cell-based
T1 sequence (P08913 whole entry): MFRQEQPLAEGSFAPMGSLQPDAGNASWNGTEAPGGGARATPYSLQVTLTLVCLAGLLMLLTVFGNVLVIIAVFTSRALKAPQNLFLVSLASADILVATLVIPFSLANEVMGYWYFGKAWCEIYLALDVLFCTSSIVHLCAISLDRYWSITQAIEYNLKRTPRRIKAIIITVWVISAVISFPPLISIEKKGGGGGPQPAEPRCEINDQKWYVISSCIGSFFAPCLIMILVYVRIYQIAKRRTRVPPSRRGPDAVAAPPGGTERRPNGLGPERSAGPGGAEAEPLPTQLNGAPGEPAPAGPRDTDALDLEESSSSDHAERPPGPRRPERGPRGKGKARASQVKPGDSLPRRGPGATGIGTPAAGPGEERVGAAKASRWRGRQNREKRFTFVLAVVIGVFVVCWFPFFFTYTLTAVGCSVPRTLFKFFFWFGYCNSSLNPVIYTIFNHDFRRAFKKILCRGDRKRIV

[3] = molecular target: D(1A) dopamine receptor (Homo sapiens, UniProt P21728); format: functional, cell-based
[4] = molecular target: T2, 5-hydroxytryptamine receptor 1A (Homo sapiens, UniProt P08908); format: functional, cell-based
T2 sequence (P08908 whole entry): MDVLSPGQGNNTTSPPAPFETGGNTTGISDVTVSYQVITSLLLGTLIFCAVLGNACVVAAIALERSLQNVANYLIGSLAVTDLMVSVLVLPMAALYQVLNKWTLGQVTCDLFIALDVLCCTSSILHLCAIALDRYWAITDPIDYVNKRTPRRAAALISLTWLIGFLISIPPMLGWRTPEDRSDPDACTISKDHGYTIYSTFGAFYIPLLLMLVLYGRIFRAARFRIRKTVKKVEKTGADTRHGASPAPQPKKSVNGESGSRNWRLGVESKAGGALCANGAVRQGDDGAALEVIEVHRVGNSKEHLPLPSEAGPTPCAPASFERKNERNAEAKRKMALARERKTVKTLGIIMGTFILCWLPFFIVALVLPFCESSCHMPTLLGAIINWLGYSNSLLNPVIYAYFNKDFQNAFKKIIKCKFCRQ

[5] = molecular target: 5-hydroxytryptamine receptor 2B (Homo sapiens, UniProt P41595); format: functional, cell-based
[6] = molecular target: T3, 5-hydroxytryptamine receptor 3A (Homo sapiens, UniProt P46098); format: functional
T3 sequence (P46098 whole entry): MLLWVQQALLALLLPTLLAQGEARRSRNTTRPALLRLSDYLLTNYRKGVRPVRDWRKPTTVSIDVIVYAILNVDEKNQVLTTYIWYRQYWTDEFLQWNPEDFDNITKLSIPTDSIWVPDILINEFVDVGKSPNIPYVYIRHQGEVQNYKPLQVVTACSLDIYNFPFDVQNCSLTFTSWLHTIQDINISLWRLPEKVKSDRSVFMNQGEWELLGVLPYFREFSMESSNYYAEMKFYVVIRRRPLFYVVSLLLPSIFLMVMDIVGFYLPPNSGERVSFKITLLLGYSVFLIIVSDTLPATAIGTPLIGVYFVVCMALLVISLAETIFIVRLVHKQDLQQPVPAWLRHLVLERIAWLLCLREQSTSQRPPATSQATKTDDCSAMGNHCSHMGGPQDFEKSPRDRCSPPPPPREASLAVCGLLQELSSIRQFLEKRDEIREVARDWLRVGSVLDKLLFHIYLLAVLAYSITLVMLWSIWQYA

[7] = molecular target: 3',5'-cyclic-AMP phosphodiesterase 4D (Homo sapiens, UniProt Q08499); format: functional
[8] = molecular target: Bile salt export pump (Homo sapiens, UniProt O95342); format: functional
[9] = molecular target: T4, Adenosine receptor A1 (Homo sapiens, UniProt P30542)
T4 sequence (P30542 whole entry): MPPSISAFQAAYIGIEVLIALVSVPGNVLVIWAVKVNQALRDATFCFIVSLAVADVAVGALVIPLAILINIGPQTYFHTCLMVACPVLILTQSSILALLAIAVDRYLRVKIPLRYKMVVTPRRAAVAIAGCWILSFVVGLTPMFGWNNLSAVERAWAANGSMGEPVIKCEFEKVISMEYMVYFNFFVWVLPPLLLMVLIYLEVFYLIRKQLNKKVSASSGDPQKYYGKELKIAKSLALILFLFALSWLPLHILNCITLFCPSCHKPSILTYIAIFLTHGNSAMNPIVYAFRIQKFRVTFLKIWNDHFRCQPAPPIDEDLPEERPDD

[10] = molecular target: Adenosine receptor A2a (Homo sapiens, UniProt P29274)
[11] = molecular target: T5, Adenosine receptor A3 (Homo sapiens, UniProt P0DMS8)
T5 sequence (P0DMS8 whole entry): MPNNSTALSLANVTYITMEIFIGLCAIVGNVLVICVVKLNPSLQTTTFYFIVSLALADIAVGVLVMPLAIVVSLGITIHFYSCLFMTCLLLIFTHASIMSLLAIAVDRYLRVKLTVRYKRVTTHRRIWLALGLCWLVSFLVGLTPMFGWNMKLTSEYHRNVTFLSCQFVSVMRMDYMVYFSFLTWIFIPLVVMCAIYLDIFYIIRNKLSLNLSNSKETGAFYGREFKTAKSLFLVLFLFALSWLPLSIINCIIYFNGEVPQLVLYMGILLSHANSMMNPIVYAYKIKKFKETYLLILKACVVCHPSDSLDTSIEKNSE

[12] = molecular target: T6, Type-1 angiotensin II receptor (Homo sapiens, UniProt P30556)
T6 sequence (P30556 whole entry): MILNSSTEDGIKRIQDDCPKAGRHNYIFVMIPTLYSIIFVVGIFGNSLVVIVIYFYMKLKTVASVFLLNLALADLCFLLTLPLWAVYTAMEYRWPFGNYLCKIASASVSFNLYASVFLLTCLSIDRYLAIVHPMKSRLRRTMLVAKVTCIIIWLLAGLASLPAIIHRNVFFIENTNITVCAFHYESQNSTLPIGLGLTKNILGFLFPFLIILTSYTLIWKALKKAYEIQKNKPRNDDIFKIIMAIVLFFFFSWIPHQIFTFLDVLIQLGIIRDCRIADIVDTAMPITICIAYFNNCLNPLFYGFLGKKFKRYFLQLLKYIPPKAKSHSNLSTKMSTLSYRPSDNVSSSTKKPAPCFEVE

[13] = molecular target: Growth hormone secretagogue receptor type 1 (Homo sapiens, UniProt Q92847)
[14] = molecular target: Melanocortin receptor 3 (Homo sapiens, UniProt P41968)
Note: assay procedure not described here.

Sequence of 5-hydroxytryptamine receptor 2B (P41595 whole entry): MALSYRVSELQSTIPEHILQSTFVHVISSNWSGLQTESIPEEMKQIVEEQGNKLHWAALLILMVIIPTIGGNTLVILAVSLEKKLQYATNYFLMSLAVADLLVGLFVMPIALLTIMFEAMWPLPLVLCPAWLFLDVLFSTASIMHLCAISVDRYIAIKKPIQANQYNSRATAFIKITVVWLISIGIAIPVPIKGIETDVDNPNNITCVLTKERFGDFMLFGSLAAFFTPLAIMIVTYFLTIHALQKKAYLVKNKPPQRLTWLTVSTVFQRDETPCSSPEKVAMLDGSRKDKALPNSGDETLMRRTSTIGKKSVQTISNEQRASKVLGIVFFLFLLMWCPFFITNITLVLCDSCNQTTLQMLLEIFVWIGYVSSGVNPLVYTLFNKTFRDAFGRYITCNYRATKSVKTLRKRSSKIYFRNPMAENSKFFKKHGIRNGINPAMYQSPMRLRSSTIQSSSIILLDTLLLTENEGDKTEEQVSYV
Sequence of D(1A) dopamine receptor (P21728 whole entry): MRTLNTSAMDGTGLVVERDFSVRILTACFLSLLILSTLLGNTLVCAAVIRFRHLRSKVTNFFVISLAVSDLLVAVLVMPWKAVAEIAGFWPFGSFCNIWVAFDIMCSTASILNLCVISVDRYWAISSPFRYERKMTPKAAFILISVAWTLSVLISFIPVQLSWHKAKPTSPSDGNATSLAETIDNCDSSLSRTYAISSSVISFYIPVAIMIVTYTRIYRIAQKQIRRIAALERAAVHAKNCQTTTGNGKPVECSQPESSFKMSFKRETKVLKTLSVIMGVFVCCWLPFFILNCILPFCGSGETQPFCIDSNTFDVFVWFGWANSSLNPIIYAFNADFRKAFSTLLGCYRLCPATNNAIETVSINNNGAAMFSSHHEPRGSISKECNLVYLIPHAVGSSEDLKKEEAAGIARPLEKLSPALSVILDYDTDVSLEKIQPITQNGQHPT
Sequence of Melanocortin receptor 3 (P41968 whole entry): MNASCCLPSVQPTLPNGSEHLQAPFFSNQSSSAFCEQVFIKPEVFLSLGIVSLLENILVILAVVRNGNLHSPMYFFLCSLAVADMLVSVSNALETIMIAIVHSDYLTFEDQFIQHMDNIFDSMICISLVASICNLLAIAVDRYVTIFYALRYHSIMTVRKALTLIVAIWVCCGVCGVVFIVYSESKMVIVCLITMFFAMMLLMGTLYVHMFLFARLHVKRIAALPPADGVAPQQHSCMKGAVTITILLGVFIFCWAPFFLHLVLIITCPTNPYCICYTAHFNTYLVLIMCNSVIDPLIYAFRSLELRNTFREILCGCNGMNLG
Sequence of Voltage-gated inwardly rectifying potassium channel KCNH2 (Q12809 whole entry): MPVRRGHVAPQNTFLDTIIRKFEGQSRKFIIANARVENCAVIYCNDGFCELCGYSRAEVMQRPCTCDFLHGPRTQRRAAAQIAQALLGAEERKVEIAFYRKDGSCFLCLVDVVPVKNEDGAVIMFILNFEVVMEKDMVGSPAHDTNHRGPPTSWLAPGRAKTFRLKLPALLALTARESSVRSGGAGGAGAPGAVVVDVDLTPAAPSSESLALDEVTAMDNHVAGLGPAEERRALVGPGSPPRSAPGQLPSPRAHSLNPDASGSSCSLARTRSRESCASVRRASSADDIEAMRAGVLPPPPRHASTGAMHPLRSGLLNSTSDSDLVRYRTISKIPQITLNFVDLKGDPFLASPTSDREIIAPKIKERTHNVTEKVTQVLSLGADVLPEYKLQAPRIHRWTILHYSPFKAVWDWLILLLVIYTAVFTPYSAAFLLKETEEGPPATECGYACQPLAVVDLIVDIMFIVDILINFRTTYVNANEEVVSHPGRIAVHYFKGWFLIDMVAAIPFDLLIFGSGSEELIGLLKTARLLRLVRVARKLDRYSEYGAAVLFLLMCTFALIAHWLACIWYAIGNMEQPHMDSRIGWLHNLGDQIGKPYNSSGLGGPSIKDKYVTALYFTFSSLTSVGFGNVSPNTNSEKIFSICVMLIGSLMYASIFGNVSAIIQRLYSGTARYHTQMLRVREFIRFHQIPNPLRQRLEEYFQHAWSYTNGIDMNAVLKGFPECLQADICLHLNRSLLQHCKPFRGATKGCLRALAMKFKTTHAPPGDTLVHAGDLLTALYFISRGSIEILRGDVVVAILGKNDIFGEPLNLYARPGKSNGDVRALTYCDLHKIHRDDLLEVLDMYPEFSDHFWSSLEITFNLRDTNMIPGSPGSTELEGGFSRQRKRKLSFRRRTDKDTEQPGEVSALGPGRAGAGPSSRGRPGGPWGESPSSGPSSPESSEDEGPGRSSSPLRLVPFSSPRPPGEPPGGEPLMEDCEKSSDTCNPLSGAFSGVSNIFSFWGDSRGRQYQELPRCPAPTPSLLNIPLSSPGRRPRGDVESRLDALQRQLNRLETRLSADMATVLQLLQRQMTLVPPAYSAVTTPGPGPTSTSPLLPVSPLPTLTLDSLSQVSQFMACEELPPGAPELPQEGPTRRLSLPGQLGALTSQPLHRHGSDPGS
Sequence of Adenosine receptor A2a (P29274 whole entry): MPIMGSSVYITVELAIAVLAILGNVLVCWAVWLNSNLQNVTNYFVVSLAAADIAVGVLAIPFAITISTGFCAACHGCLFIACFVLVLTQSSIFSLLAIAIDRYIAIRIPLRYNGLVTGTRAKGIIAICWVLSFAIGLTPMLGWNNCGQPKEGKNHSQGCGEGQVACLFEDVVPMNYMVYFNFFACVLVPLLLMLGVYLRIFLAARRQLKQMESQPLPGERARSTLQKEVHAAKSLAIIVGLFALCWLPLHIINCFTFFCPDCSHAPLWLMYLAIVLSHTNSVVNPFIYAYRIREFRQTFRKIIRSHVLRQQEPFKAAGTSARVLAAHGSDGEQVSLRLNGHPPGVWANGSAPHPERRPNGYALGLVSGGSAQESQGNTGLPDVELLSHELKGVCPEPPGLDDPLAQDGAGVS
Sequence of Bile salt export pump (O95342 whole entry): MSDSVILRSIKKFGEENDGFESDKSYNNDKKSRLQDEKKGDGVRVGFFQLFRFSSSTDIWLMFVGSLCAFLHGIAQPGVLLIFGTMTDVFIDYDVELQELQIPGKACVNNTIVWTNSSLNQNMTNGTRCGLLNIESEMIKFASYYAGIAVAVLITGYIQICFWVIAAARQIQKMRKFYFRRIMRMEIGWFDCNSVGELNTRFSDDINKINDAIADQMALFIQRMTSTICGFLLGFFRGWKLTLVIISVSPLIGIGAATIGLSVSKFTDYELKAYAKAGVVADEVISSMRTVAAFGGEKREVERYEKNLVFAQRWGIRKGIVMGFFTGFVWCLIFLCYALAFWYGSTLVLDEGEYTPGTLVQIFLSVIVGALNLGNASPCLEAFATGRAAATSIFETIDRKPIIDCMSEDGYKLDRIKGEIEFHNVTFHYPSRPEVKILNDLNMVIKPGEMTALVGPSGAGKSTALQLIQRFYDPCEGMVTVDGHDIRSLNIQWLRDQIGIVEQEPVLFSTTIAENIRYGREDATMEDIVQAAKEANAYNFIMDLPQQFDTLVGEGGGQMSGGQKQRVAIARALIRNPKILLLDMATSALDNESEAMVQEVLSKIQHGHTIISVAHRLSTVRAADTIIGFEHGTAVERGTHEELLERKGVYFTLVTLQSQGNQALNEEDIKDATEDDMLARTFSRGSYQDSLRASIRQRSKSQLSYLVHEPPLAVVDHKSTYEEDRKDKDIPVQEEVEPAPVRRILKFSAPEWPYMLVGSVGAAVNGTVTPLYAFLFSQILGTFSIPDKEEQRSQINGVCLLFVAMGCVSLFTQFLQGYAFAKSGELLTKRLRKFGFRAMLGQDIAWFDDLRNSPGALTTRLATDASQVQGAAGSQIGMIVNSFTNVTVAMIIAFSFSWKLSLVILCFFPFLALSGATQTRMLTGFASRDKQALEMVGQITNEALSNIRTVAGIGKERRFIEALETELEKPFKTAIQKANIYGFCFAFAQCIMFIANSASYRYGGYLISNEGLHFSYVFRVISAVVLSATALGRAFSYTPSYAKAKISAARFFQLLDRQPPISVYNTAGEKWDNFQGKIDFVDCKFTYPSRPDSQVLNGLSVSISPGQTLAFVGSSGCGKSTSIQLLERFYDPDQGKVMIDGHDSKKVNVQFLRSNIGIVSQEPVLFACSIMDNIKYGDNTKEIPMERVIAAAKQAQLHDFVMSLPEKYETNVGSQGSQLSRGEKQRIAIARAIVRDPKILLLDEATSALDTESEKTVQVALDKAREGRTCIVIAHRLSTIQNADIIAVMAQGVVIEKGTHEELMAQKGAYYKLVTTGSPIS
Sequence of 3',5'-cyclic-AMP phosphodiesterase 4D (Q08499 whole entry): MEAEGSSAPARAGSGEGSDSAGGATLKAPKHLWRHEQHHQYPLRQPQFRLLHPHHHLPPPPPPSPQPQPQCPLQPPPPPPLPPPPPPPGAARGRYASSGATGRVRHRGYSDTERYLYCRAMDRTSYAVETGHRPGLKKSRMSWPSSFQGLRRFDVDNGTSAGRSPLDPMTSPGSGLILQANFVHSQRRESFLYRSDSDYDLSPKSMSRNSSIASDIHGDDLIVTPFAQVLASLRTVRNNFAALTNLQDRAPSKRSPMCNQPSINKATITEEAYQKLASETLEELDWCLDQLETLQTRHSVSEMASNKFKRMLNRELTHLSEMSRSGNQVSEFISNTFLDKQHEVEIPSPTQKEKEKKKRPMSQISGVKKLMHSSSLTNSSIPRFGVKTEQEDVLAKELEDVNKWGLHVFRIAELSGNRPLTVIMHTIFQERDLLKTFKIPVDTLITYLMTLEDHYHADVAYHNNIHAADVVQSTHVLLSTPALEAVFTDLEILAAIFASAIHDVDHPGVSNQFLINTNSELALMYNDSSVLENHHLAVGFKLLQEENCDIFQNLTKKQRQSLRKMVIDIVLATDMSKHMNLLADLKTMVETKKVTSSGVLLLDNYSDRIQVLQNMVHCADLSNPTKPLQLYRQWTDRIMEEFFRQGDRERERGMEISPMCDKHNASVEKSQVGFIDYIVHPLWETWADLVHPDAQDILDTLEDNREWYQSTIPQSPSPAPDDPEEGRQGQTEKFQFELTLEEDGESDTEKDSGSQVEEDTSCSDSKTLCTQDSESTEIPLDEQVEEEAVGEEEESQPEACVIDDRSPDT

CCCCCCCCCCCCCCCC(=O)OC[C@H](COP(=O)([O-])OCC[N+](C)(C)C)OC(=O)CCCCCCCCCCCCCCC [COLFOSCERIL PALMITATE]
AC50 [1]: > 30 µM

COc1cccc2c1C(=O)c1c(O)c3c(c(O)c1C2=O)C[C@@](O)(C(=O)CO)C[C@@H]3O[C@H]1C[C@H](N)[C@H](O[C@@H]2CCCCO2)[C@H](C)O1 [PIRARUBICIN]
AC50 [1]: > 30 µM

O=C(O)[C@H](O)[C@@H](O)[C@H](O)[C@H](O)CO [GLUCONIC ACID]
AC50 [1]: > 30 µM

CC(C)(Oc1ccc(Cl)cc1)C(=O)NC(=O)NCN1CCOCC1 [PLAFIBRIDE]
AC50 [1]: > 30 µM

C#CCN(C)Cc1ccccc1 [PARGYLINE]
AC50 [2]: > 30 µM
AC50 [3]: > 30 µM
AC50 [4]: > 30 µM
AC50 [5]: > 30 µM
AC50 [6]: > 30 µM
AC50 [1]: > 30 µM
AC50 [7]: > 30 µM

N=C(N)NCC1COc2ccccc2O1 (configuration not stated) [GUANOXAN]
AC50 [1]: > 30 µM

N#Cc1ccnc(N2C(=O)CC[C@H]2C(=O)N(c2cncc(F)c2)[C@H](C(=O)NC2CC(F)(F)C2)c2ccccc2Cl)c1 [IVOSIDENIB]
AC50 [8]: 79 µM
AC50 [1]: > 30 µM

CC(C)Nc1cccnc1N1CCN(C(=O)c2cc3cc(NS(C)(=O)=O)ccc3[nH]2)CC1 [DELAVIRDINE]
AC50 [1]: 16 µM

O=c1[nH]c2ccccc2n1CCN1CCN(c2cccc(C(F)(F)F)c2)CC1 [FLIBANSERIN]
AC50 [8]: 29 µM
AC50 [1]: 13 µM

CN(C)CCN(Cc1ccccc1)c1ccccn1 [TRIPELENNAMINE]
AC50 [9]: > 10 µM
AC50 [10]: > 10 µM
AC50 [11]: > 10 µM
AC50 [2]: > 10 µM
AC50 [12]: > 10 µM
AC50 [3]: > 10 µM
AC50 [13]: > 10 µM
AC50 [4]: > 10 µM
AC50 [5]: > 10 µM
AC50 [6]: > 30 µM
AC50 [1]: 2.8 µM
AC50 [14]: > 10 µM
AC50 [7]: > 10 µM

CO[C@@]1(NC(=O)C(C(=O)O)c2ccc(O)cc2)C(=O)N2C(C(=O)O)=C(CSc3nnnn3C)CO[C@@H]21 (some centres not stated) [MOXALACTAM]
AC50 [1]: > 30 µM

CCCCCCCC/C=C\CCCCCCCC(=O)O [OLEIC ACID]
AC50 [8]: 260 µM
AC50 [1]: > 30 µM

O=c1[nH]cc(F)c(=O)[nH]1 [FLUOROURACIL]
AC50 [9]: > 30 µM
AC50 [10]: > 30 µM
AC50 [11]: > 30 µM
AC50 [12]: > 30 µM
AC50 [13]: > 30 µM
AC50 [1]: > 30 µM
AC50 [14]: > 30 µM

O=NN(CCCl)C(=O)NC1CCCCC1 [LOMUSTINE]
AC50 [8]: > 300 µM

CC#CC(=O)N1CCC[C@H]1c1nc(-c2ccc(C(=O)Nc3ccccn3)cc2)c2c(N)nccn12 [ACALABRUTINIB]
AC50 [1]: > 30 µM

CC1=C(C/C=C(\C)CCC[C@H](C)CCC[C@H](C)CCCC(C)C)C(=O)c2ccccc2C1=O [PHYTONADIONE]
AC50 [8]: 160 µM
AC50 [1]: > 30 µM

CNC1(c2ccccc2Cl)CCCCC1=O (configuration not stated) [KETAMINE]
AC50 [1]: > 30 µM

NC(=O)C1(N2CCCCC2)CCN(CCCC(=O)c2ccc(F)cc2)CC1 [PIPAMPERONE]
AC50 [1]: 1.9 µM

CC(C)NC[C@H](O)COc1ccc(O)cc1 [PRENALTEROL]
AC50 [1]: > 30 µM

CN1CCC(N(Cc2cccs2)c2ccccc2)CC1 [THENALIDINE]
AC50 [1]: 2.9 µM

Cc1cccc(C)c1NC(=O)c1cc(S(N)(=O)=O)c(Cl)cc1O [XIPAMIDE]
AC50 [1]: > 30 µM

CS(=O)(=O)Nc1ccc([N+](=O)[O-])cc1Oc1ccccc1 [NIMESULIDE]
AC50 [8]: 110 µM
AC50 [10]: 20 µM
AC50 [2]: > 30 µM
AC50 [12]: 20 µM
AC50 [3]: > 30 µM
AC50 [13]: 30 µM
AC50 [4]: > 30 µM
AC50 [5]: > 30 µM
AC50 [6]: > 30 µM
AC50 [1]: > 30 µM
AC50 [14]: > 30 µM
AC50 [7]: > 30 µM

CCCCCCO[C@@H](C)c1cccc(-c2csc(NC(=O)c3cc(Cl)c(/C=C(\C)C(=O)O)c(Cl)c3)n2)c1OC [LUSUTROMBOPAG]
AC50 [8]: 4 µM
AC50 [1]: 4.9 µM

NC(=O)C1(N2CCCCC2)CCN(CCCN2c3ccccc3CCc3ccccc32)CC1 [CARPIPRAMINE]
AC50 [1]: 2.2 µM

O=C1[C@@H]2[C@H]3CC[C@H](C3)[C@@H]2C(=O)N1C[C@@H]1CCCC[C@H]1CN1CCN(c2nsc3ccccc23)CC1 [LURASIDONE]
AC50 [8]: 13 µM
AC50 [9]: > 30 µM
AC50 [10]: > 30 µM
AC50 [11]: 9.9 µM
AC50 [12]: > 30 µM
AC50 [13]: > 30 µM
AC50 [5]: > 30 µM
AC50 [6]: > 30 µM
AC50 [14]: > 30 µM
AC50 [7]: > 30 µM

O=C(Cc1cccs1)N[C@@H]1C(=O)N2C(C(=O)[O-])=C(C[n+]3ccccc3)CS[C@H]12 [CEPHALORIDINE]
AC50 [2]: > 30 µM
AC50 [3]: > 30 µM
AC50 [4]: > 30 µM
AC50 [5]: > 30 µM
AC50 [6]: > 30 µM
AC50 [1]: > 30 µM
AC50 [7]: > 30 µM

C=CCOc1ccc(CC(=O)O)cc1Cl [ALCLOFENAC]
AC50 [8]: > 300 µM
AC50 [1]: > 30 µM

OC[C@H]1NC[C@H](O)[C@@H](O)[C@H]1O
AC50 [8]: > 300 µM
AC50 [1]: > 30 µM

Cc1ccc(C(C)C)c(O)c1 [THYMOL]
AC50 [8]: > 300 µM
AC50 [1]: > 30 µM

CC(C)NCC(O)COc1ccc(CC(N)=O)cc1 (configuration not stated) [ATENOLOL]
AC50 [8]: > 300 µM
AC50 [9]: > 30 µM
AC50 [10]: > 30 µM
AC50 [11]: > 30 µM
AC50 [2]: > 30 µM
AC50 [12]: > 30 µM
AC50 [13]: > 30 µM
AC50 [4]: > 30 µM
AC50 [6]: > 30 µM
AC50 [14]: > 30 µM
AC50 [7]: > 30 µM

O=C(O)[C@@H](S)[C@@H](S)C(=O)O
AC50 [8]: 50 µM
AC50 [1]: > 30 µM

Cc1cc(C)cc(OCC2CNC(=O)O2)c1 (configuration not stated) [METAXALONE]
AC50 [8]: > 300 µM
AC50 [1]: > 30 µM

C[C@@H](CN1CC(=O)NC(=O)C1)N1CC(=O)NC(=O)C1 [DEXRAZOXANE]
AC50 [1]: > 30 µM

O=P1(N(CCCl)CCCl)NCCCO1 (configuration not stated) [CYCLOPHOSPHAMIDE ANHYDROUS]
AC50 [8]: > 300 µM
AC50 [1]: > 30 µM

CN1CCN(C(c2ccccc2)c2ccc(Cl)cc2)CC1 (configuration not stated) [CHLORCYCLIZINE]
AC50 [8]: > 300 µM
AC50 [1]: 4.64 µM
